Where a SMILES comes first, the peptide text is derived from it.
What was measured:
NEP = molecular target: T1, NEP (Rattus norvegicus, UniProt P07861); assay: Met-enkephalinase activity of rat spinal cord slices, Met-enkephalin RIA; format: biochemical; conditions: 10 μM, fresh spinal cord tissue, 20 min at 25° C.
T1 construct: incubations of membrane and fresh tissue slice preparations from nervous tissues; from tissue; host or cells: dorsal spinal cord of male Wistar rats (fresh slices or 100 000 x g membrane fraction)
T1 sequence (P07861 1-750): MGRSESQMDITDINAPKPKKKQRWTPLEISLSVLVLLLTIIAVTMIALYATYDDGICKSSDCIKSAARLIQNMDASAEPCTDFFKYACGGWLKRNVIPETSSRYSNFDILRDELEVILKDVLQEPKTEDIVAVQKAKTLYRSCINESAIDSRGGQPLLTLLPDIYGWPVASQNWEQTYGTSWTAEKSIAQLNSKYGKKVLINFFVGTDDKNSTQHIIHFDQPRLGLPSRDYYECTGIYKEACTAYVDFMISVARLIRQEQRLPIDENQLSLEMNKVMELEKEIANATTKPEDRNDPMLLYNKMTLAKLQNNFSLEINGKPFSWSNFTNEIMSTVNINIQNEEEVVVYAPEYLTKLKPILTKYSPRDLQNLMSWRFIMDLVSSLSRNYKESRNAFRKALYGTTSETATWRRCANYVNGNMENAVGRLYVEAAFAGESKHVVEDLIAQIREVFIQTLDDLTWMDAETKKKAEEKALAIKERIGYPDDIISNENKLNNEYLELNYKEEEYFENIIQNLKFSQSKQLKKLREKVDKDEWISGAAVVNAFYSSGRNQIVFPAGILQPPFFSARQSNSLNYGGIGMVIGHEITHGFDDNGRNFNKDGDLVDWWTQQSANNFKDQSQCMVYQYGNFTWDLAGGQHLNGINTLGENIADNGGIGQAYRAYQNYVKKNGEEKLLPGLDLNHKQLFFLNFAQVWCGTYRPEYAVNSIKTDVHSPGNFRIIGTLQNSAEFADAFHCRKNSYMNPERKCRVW
Description: FIG. 2-A: […] The organs are rapidly removed, dissected on ice, freed of nerve fibers and of adipose tissues and then washed in cold oxygenated glucose- and bicarbonate-containing Krebs Ringer (KRBG) solution, whose composition is the following: 120 mM NaCl-5 mM KCl-1.2 mM KH2PO4-27.5 mM NaHCO3-2.6 mM CaCl2-0.67 mM MgSO4-5.9 mM glucose. The slices of tissues are prepared either manually with the aid of a scalpel (1-2 mm thick), or mechanically with the aid of a “Tissue Chopper” (1 mm thick). Slices are then dispersed into reaction tubes where they are subjected to three successive washes in ice-cold oxygenated KRBG. […] For the experiments of analysis of the NEP peptidase activity, an ex vivo model using incubations of membrane and fresh tissue slice preparations from nervous tissues that are known to be appropriate for exploring NEP peptidase activity: i.e. the dorsal zone of rat spinal cord, was first developed. The metabolism rate of the NEP-sensitive peptides was measured using the both NEP substrates involved in the signaling of the nociceptive response: the neuropeptides Met-enkephalin and Substance P. […] (NEN, 12.5-25 nM) were used. The objective was to measure the NEP-specific endoproteolysis of these substrates. […] Furthermore, for studying the functional role of […] NO: 2), the reaction was carried out in the presence of the SMR1-peptide alone or combined with specific inhibitors of membrane peptidases which could inactivate the […] […] Herein, a competitive RIA system has been used: the quantity of radioactive antigen bound to the antibody decreases in a manner inversely proportional to the quantity of antigen contained in the standard solution or in the sample. […] The activity of enkephalinase NEP is monitored by quantification of the disappearance of the initial Met-enkephalin substrate. […] The radiolabeled antigen is iodinated Met-enkephalin (^125I-Met-Enk enkephalin) with a specific radioactivity estimated at 3000 Ci/mmol. […] After centrifugation, the bound radioactivity of the precipitate is quantified using a gamma-spectrometer.

[1] = molecular target: T2, purified rabbit renal NEP (Oryctolagus cuniculus, UniProt P08049); assay: Substance P catabolism by purified rabbit renal NEP; format: biochemical; conditions: substance P as substrate, read-out: inhibition of substance P catabolism by the soluble enzyme
T2 construct: purified rabbit renal NEP; from tissue; host or cells: rabbit kidney (purified enzyme)
T2 sequence (P08049 1-750): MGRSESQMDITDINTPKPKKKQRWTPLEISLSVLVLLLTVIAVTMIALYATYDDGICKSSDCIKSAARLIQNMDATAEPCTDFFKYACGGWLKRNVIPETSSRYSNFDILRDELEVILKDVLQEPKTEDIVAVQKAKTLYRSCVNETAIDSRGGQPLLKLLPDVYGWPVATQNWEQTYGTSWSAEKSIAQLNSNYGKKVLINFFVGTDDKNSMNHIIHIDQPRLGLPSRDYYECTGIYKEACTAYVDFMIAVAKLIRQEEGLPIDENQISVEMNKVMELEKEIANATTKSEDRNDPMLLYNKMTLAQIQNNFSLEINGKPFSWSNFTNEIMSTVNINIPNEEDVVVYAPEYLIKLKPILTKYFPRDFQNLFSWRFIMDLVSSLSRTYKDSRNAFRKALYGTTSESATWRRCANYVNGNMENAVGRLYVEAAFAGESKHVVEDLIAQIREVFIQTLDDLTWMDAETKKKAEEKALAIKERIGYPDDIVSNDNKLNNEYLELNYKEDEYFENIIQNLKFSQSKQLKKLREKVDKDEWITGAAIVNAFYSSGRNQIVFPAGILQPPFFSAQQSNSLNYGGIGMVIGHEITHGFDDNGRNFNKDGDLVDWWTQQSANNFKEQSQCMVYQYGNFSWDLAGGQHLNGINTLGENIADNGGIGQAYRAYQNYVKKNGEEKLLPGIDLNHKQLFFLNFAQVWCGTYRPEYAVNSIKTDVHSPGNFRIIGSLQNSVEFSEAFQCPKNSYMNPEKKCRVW

protection of Met-enkephalin from degradation (NEP): 96% | inhibition at 5 µM [1]: 46%
Compound: N=C(N)NCCC[C@H](NC(=O)[C@@H]1CCCN1C(=O)[C@H](CC(N)=O)NC(=O)[C@H](Cc1c[nH]cn1)NC(=O)[C@@H](N)CCC(N)=O)C(=O)O [sialorphin, Gln-His-Asn-Pro-Arg] (H-QHNPR-OH; N-terminus and C-terminus assumed)

— patent US7625713B2, “Process for identifying a ligand that binds to the NEP binding site for the SMR1 pentapeptide” (Institut Pasteur, priority 2000, dated 2009)
